Reference: ChEMBL document CHEMBL5518226, “A Vancomycin-Templated DNA-Encoded Library for Combating Drug-Resistant Bacteria” (2024)
Values after ≈ are worked out from the molar mass of the structure shown.

Columns and labels:
Format in all cases: functional
Enterococcus faecium [1] = test: Antibacterial activity against vancomycin-resistant Enterococcus faecium 0649 assessed as reduction in bacterial growth by measuring fold change at 0.0625 to 64 ug/ml incubated for 24 hrs by CLSI protocol based broth microdilution method relative to vancomycin; conditions: dose 0.0625-64 µg/ml
Staphylococcus aureus [2] = test: Antibacterial activity against vancomycin-intermediate resistant Staphylococcus aureus Mu50 assessed as reduction in bacterial growth by measuring fold change at 0.0625 to 64 ug/ml incubated for 24 hrs by CLSI protocol based broth microdilution method relative to vancomycin; conditions: dose 0.0625-64 µg/ml
Enterococcus faecalis [3] = test: Antibacterial activity against vancomycin resistant Enterococcus faecalis clinical isolate 20-1 assessed as inhibition of bacterial growth incubated for 24 hrs by CLSI protocol based broth microdilution method
Streptococcus pneumoniae [4] = test: Antibacterial activity against penicillin susceptible Streptococcus pneumoniae clinical isolate 20-1 assessed as inhibition of bacterial growth incubated for 24 hrs by CLSI protocol based broth microdilution method
Enterococcus faecium [5] = test: Antibacterial activity against Enterococcus faecium clinical isolate 20-16 assessed as inhibition of bacterial growth incubated for 24 hrs by CLSI protocol based broth microdilution method
Staphylococcus aureus [6] = test: Antibacterial activity against methicillin sensitive Staphylococcus aureus Newman assessed as inhibition of bacterial growth incubated for 24 hrs by CLSI protocol based broth microdilution method
Enterococcus faecium [7] = test: Antibacterial activity against Enterococcus faecium clinical isolate 20-15 assessed as inhibition of bacterial growth incubated for 24 hrs by CLSI protocol based broth microdilution method
Staphylococcus aureus [8] = test: Antibacterial activity against vancomycin-intermediate resistant Staphylococcus aureus ATCC700699 assessed as inhibition of bacterial growth incubated for 24 hrs by CLSI protocol based broth microdilution method
Enterococcus faecalis [9] = test: Antibacterial activity against Enterococcus faecalis clinical isolate 20-11 assessed as inhibition of bacterial growth incubated for 24 hrs by CLSI protocol based broth microdilution method
Staphylococcus aureus [10] = test: Antibacterial activity against methicillin resistant Staphylococcus aureus USA300 assessed as inhibition of bacterial growth incubated for 24 hrs by CLSI protocol based broth microdilution method
Staphylococcus aureus [11] = test: Antibacterial activity against methicillin sensitive Staphylococcus aureus ATCC29213 assessed as inhibition of bacterial growth incubated for 24 hrs by CLSI protocol based broth microdilution method
Staphylococcus aureus [12] = test: Antibacterial activity against methicillin sensitive Staphylococcus aureus clinical isolate 20-45 assessed as inhibition of bacterial growth incubated for 24 hrs by CLSI protocol based broth microdilution method
[13] = test system: Staphylococcus epidermidis; test: Antibacterial activity against methicillin sensitive Staphylococcus epidermidis clinical isolate 20-1 assessed as inhibition of bacterial growth incubated for 24 hrs by CLSI protocol based broth microdilution method
Streptococcus pneumoniae [14] = test: Antibacterial activity against Streptococcus pneumoniae ATCC49619 assessed as inhibition of bacterial growth incubated for 24 hrs by CLSI protocol based broth microdilution method
Staphylococcus aureus [15] = test: Antibacterial activity against methicillin resistant Staphylococcus aureus clinical isolate 20-34 assessed as inhibition of bacterial growth incubated for 24 hrs by CLSI protocol based broth microdilution method
[16] = test system: Staphylococcus epidermidis; test: Antibacterial activity against methicillin resistant Staphylococcus epidermidis clinical isolate 20-1 assessed as inhibition of bacterial growth incubated for 24 hrs by CLSI protocol based broth microdilution method

Compound | fold change (FC) (Enterococcus faecium [1]) | fold change (FC) (Staphylococcus aureus [2]) | MIC (Enterococcus faecalis [3]) [µg/mL] | MIC (Streptococcus pneumoniae [4]) [µg/mL] | MIC (Enterococcus faecium [5]) [µg/mL] | MIC (Staphylococcus aureus [6]) [µg/mL] | MIC (Enterococcus faecium [7]) [µg/mL] | MIC (Staphylococcus aureus [8]) [µg/mL] | MIC (Enterococcus faecalis [9]) [µg/mL] | MIC (Staphylococcus aureus [10]) [µg/mL] | MIC (Staphylococcus aureus [11]) [µg/mL] | MIC (Staphylococcus aureus [12]) [µg/mL] | MIC [13] [µg/mL] | MIC (Streptococcus pneumoniae [14]) [µg/mL] | MIC (Staphylococcus aureus [15]) [µg/mL] | MIC [16] [µg/mL]
CN[C@H](CC(C)C)C(=O)N[C@H]1C(=O)N[C@@H](CC(N)=O)C(=O)N[C@H]2C(=O)N[C@H]3C(=O)N[C@H](C(=O)N[C@H](C(=O)O)c4cc(O)cc(O)c4-c4cc3ccc4O)[C@H](O)c3ccc(c(Cl)c3)Oc3cc2cc(c3O[C@@H]2O[C@H](CO)[C@@H](O)[C@H](O)[C@H]2O[C@H]2C[C@](C)(NCCCc3cn(-c4cccc(NC(=O)OC(C)(C)C)c4)nn3)[C@H](O)[C@H](C)O2)Oc2ccc(cc2Cl)[C@H]1O | 8 | 8 | – | – | – | – | – | – | – | – | – | – | – | – | – | –
CN[C@H](CC(C)C)C(=O)N[C@H]1C(=O)N[C@@H](CC(N)=O)C(=O)N[C@H]2C(=O)N[C@H]3C(=O)N[C@H](C(=O)N[C@H](C(=O)O)c4cc(O)cc(O)c4-c4cc3ccc4O)[C@H](O)c3ccc(c(Cl)c3)Oc3cc2cc(c3O[C@@H]2O[C@H](CO)[C@@H](O)[C@H](O)[C@H]2O[C@H]2C[C@](C)(NCc3ccc(Oc4cc(Cl)cc(Cl)c4)cc3)[C@H](O)[C@H](C)O2)Oc2ccc(cc2Cl)[C@H]1O | 16 | 8 | 4 (≈ 2.35 µM) | ≤ 0.015 | 0.03 (≈ 0.0176 µM) | ≤ 0.06 | ≤ 0.015 | 0.125 (≈ 0.0735 µM) | ≤ 0.015 | ≤ 0.06 | ≤ 0.015 | ≤ 0.015 | ≤ 0.015 | ≤ 0.015 | – | –
CN[C@H](CC(C)C)C(=O)N[C@H]1C(=O)N[C@@H](CC(N)=O)C(=O)N[C@H]2C(=O)N[C@H]3C(=O)N[C@H](C(=O)N[C@H](C(=O)O)c4cc(O)cc(O)c4-c4cc3ccc4O)[C@H](O)c3ccc(c(Cl)c3)Oc3cc2cc(c3O[C@@H]2O[C@H](CO)[C@@H](O)[C@H](O)[C@H]2O[C@H]2C[C@](C)(NCCCc3cn(C4CN(C(c5ccccc5)c5ccccc5)C4)nn3)[C@H](O)[C@H](C)O2)Oc2ccc(cc2Cl)[C@H]1O | 8 | 8 | 8 (≈ 4.5 µM) | ≤ 0.03 | ≤ 0.03 | ≤ 0.015 | ≤ 0.03 | 0.5 (≈ 0.281 µM) | 0.06 (≈ 0.0337 µM) | ≤ 0.015 | ≤ 0.03 | ≤ 0.03 | ≤ 0.03 | ≤ 0.03 | – | –
CN[C@H](CC(C)C)C(=O)N[C@H]1C(=O)N[C@@H](CC(N)=O)C(=O)N[C@H]2C(=O)N[C@H]3C(=O)N[C@H](C(=O)N[C@H](C(=O)O)c4cc(O)cc(O)c4-c4cc3ccc4O)[C@H](O)c3ccc(c(Cl)c3)Oc3cc2cc(c3O[C@@H]2O[C@H](CO)[C@@H](O)[C@H](O)[C@H]2O[C@H]2C[C@](C)(NCc3ccc(Cl)cc3Cl)[C@H](O)[C@H](C)O2)Oc2ccc(cc2Cl)[C@H]1O | 8 | – | – | – | – | – | – | – | – | – | – | – | – | – | – | –
CN[C@H](CC(C)C)C(=O)N[C@H]1C(=O)N[C@@H](CC(N)=O)C(=O)N[C@H]2C(=O)N[C@H]3C(=O)N[C@H](C(=O)N[C@H](C(=O)O)c4cc(O)c(CN(C)Cc5cn(-c6cccc(NC(=O)OC(C)(C)C)c6)nn5)c(O)c4-c4cc3ccc4O)[C@H](O)c3ccc(c(Cl)c3)Oc3cc2cc(c3O[C@@H]2O[C@H](CO)[C@@H](O)[C@H](O)[C@H]2O[C@H]2C[C@](C)(NCc3ccccc3-c3ccccc3)[C@H](O)[C@H](C)O2)Oc2ccc(cc2Cl)[C@H]1O | 8 | – | – | – | – | – | – | – | – | – | – | – | – | – | – | –
CN[C@H](CC(C)C)C(=O)N[C@H]1C(=O)N[C@@H](CC(N)=O)C(=O)N[C@H]2C(=O)N[C@H]3C(=O)N[C@H](C(=O)N[C@H](C(=O)O)c4cc(O)cc(O)c4-c4cc3ccc4O)[C@H](O)c3ccc(c(Cl)c3)Oc3cc2cc(c3O[C@@H]2O[C@H](CO)[C@@H](O)[C@H](O)[C@H]2O[C@H]2C[C@](C)(NCCCc3cn(-c4ccc(OC(F)F)cc4)nn3)[C@H](O)[C@H](C)O2)Oc2ccc(cc2Cl)[C@H]1O | 8 | 8 | – | – | – | – | – | – | – | – | – | – | – | – | – | –
CN[C@H](CC(C)C)C(=O)N[C@H]1C(=O)N[C@@H](CC(N)=O)C(=O)N[C@H]2C(=O)N[C@H]3C(=O)N[C@H](C(=O)N[C@H](C(=O)O)c4cc(O)cc(O)c4-c4cc3ccc4O)[C@H](O)c3ccc(c(Cl)c3)Oc3cc2cc(c3O[C@@H]2O[C@H](CO)[C@@H](O)[C@H](O)[C@H]2O[C@H]2C[C@](C)(NCc3ccc(-c4ccc(C(F)(F)F)cc4)cc3)[C@H](O)[C@H](C)O2)Oc2ccc(cc2Cl)[C@H]1O | 16 | 8 | – | – | – | – | – | – | – | – | – | – | – | – | – | –
CN[C@H](CC(C)C)C(=O)N[C@H]1C(=O)N[C@@H](CC(N)=O)C(=O)N[C@H]2C(=O)N[C@H]3C(=O)N[C@H](C(=O)N[C@H](C(=O)O)c4cc(O)cc(O)c4-c4cc3ccc4O)[C@H](O)c3ccc(c(Cl)c3)Oc3cc2cc(c3O[C@@H]2O[C@H](CO)[C@@H](O)[C@H](O)[C@H]2O[C@H]2C[C@](C)(NCc3ccc(-c4ccccc4)s3)[C@H](O)[C@H](C)O2)Oc2ccc(cc2Cl)[C@H]1O | 16 | 8 | – | – | – | – | – | – | – | – | – | – | – | – | – | –
CN[C@H](CC(C)C)C(=O)N[C@H]1C(=O)N[C@@H](CC(N)=O)C(=O)N[C@H]2C(=O)N[C@H]3C(=O)N[C@H](C(=O)N[C@H](C(=O)O)c4cc(O)cc(O)c4-c4cc3ccc4O)[C@H](O)c3ccc(c(Cl)c3)Oc3cc2cc(c3O[C@@H]2O[C@H](CO)[C@@H](O)[C@H](O)[C@H]2O[C@H]2C[C@](C)(NCc3ccc(C#Cc4ccccc4)cc3)[C@H](O)[C@H](C)O2)Oc2ccc(cc2Cl)[C@H]1O | 16 | 8 | 4 (≈ 2.44 µM) | ≤ 0.015 | ≤ 0.015 | ≤ 0.06 | ≤ 0.015 | 0.125 (≈ 0.0762 µM) | ≤ 0.015 | ≤ 0.06 | ≤ 0.015 | ≤ 0.015 | ≤ 0.015 | ≤ 0.015 | 1 (≈ 0.61 µM) | –
CN[C@H](CC(C)C)C(=O)N[C@H]1C(=O)N[C@@H](CC(N)=O)C(=O)N[C@H]2C(=O)N[C@H]3C(=O)N[C@H](C(=O)N[C@H](C(=O)O)c4cc(O)c(CN(C)Cc5cn(-c6cccc(NC(=O)OC(C)(C)C)c6)nn5)c(O)c4-c4cc3ccc4O)[C@H](O)c3ccc(c(Cl)c3)Oc3cc2cc(c3O[C@@H]2O[C@H](CO)[C@@H](O)[C@H](O)[C@H]2O[C@H]2C[C@](C)(NCc3ccccc3Oc3ccccc3)[C@H](O)[C@H](C)O2)Oc2ccc(cc2Cl)[C@H]1O | 8 | – | – | – | – | – | – | – | – | – | – | – | – | – | – | –
CN[C@H](CC(C)C)C(=O)N[C@H]1C(=O)N[C@@H](CC(N)=O)C(=O)N[C@H]2C(=O)N[C@H]3C(=O)N[C@H](C(=O)N[C@H](C(=O)O)c4cc(O)c(CN(C)Cc5cn(-c6cccc(NC(=O)OC(C)(C)C)c6)nn5)c(O)c4-c4cc3ccc4O)[C@H](O)c3ccc(c(Cl)c3)Oc3cc2cc(c3O[C@@H]2O[C@H](CO)[C@@H](O)[C@H](O)[C@H]2O[C@H]2C[C@](C)(NCc3cccc(-c4cc(F)ccc4F)n3)[C@H](O)[C@H](C)O2)Oc2ccc(cc2Cl)[C@H]1O | 8 | – | – | – | – | – | – | – | – | – | – | – | – | – | – | –
CN[C@H](CC(C)C)C(=O)N[C@H]1C(=O)N[C@@H](CC(N)=O)C(=O)N[C@H]2C(=O)N[C@H]3C(=O)N[C@H](C(=O)N[C@H](C(=O)O)c4cc(O)cc(O)c4-c4cc3ccc4O)[C@H](O)c3ccc(c(Cl)c3)Oc3cc2cc(c3O[C@@H]2O[C@H](CO)[C@@H](O)[C@H](O)[C@H]2O[C@H]2C[C@](C)(NCCCc3cn(Cc4ccc(Cl)c(Cl)c4)nn3)[C@H](O)[C@H](C)O2)Oc2ccc(cc2Cl)[C@H]1O | 8 | 8 | 4 (≈ 2.33 µM) | ≤ 0.03 | ≤ 0.03 | ≤ 0.015 | ≤ 0.03 | 0.125 (≈ 0.0728 µM) | ≤ 0.03 | ≤ 0.015 | ≤ 0.03 | ≤ 0.03 | ≤ 0.03 | ≤ 0.03 | – | 0.06 (≈ 0.0349 µM)
CN[C@H](CC(C)C)C(=O)N[C@H]1C(=O)N[C@@H](CC(N)=O)C(=O)N[C@H]2C(=O)N[C@H]3C(=O)N[C@H](C(=O)N[C@H](C(=O)O)c4cc(O)cc(O)c4-c4cc3ccc4O)[C@H](O)c3ccc(c(Cl)c3)Oc3cc2cc(c3O[C@@H]2O[C@H](CO)[C@@H](O)[C@H](O)[C@H]2O[C@H]2C[C@](C)(NCc3ccc(Oc4ccccc4)cc3)[C@H](O)[C@H](C)O2)Oc2ccc(cc2Cl)[C@H]1O | 16 | 8 | 8 (≈ 4.9 µM) | ≤ 0.03 | ≤ 0.03 | ≤ 0.06 | ≤ 0.03 | 0.5 (≈ 0.306 µM) | ≤ 0.03 | ≤ 0.06 | ≤ 0.03 | ≤ 0.03 | 0.125 (≈ 0.0766 µM) | ≤ 0.03 | – | 0.25 (≈ 0.153 µM)
